In paper PMC7582957, “A Fluorescence Polarization-Based High-Throughput Screen to Identify the First Small-Molecule Modulators of the Human Adenylyltransferase HYPE/FICD” (International Journal of Molecular Sciences, 2020):
Residue numbers refer to the chain shown, from its start.

Columns and labels:
Type in all cases: biochemical
Δ102 HYPE (HYPE103-456) [1] = target: T1, Δ102 HYPE (HYPE103-456) (Homo sapiens, UniProt Q9BVA6, E234G); assay: fluorescence polarization autoAMPylation with Fl-ATP
T1 construct: gene FICD; aa 103-456, lacks TM domain and N-terminus; His6-SUMO tag cleaved by ULP1; pSMT3, E. coli BL21-DE3-RILP; cobalt and size-exclusion purified
T1 sequence (Q9BVA6 103-456 E234G): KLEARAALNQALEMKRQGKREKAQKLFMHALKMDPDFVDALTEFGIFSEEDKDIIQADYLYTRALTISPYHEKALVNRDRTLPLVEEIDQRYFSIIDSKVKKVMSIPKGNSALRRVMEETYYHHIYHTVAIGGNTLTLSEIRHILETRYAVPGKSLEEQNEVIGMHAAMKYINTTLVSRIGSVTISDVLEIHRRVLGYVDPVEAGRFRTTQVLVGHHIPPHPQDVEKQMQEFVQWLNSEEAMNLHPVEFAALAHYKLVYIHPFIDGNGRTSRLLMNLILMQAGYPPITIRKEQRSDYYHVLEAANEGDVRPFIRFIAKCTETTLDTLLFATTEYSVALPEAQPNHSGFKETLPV
Excerpt: fluorescence polarization autoAMPylation with Fl-ATP on Δ102 HYPE (HYPE103-456) | I1 and I3 were in the mid-micromolar range | we obtained a low micromolar inhibitory potency for I2

Δ102 HYPE (HYPE103-456) [2] = target: T2, Δ102 HYPE (HYPE103-456) (Homo sapiens, UniProt Q9BVA6); assay: as above; conditions: activator; detergent-less minimal buffer 50 mM HEPES pH 7.5, 1 mM MnCl2, 25 nM Fl-ATP, 0.4 µM enzyme, room temperature; unreliable
T2 construct: gene FICD; aa 103-456, lacks TM domain and N-terminus; His6-SUMO tag cleaved by ULP1; pSMT3, E. coli BL21-DE3-RILP; cobalt and size-exclusion purified
T2 sequence (Q9BVA6 103-456): T1 sequence (Q9BVA6 103-456 E234G) with G132E
Excerpt: fluorescence polarization autoAMPylation with Fl-ATP on Δ102 HYPE (HYPE103-456) | robust dose-dependencies among all activators, with low micromolar EC50 values

Δ45 HYPE = target: T3, Δ45 HYPE (Homo sapiens, UniProt Q9BVA6); assay: in-gel fluorescence autoAMPylation with Fl-ATP; conditions: activator; same, with 0.1% Triton X-100
T3 construct: gene FICD; aa 46-456, TM domain deleted; His6-SUMO tag cleaved by ULP1; pSMT3, E. coli BL21-DE3-RILP; cobalt and size-exclusion purified
T3 sequence (Q9BVA6 46-456): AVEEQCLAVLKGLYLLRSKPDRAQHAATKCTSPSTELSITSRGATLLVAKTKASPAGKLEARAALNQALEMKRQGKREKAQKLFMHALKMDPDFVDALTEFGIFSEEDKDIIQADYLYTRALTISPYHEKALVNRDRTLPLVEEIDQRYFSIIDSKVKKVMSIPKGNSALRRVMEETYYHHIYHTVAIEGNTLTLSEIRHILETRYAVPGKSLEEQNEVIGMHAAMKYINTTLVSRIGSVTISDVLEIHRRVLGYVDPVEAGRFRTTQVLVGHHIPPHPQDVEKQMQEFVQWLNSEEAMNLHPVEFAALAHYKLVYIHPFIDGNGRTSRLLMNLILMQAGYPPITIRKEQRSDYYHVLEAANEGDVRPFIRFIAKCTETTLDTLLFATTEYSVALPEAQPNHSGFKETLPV

Compound | IC50 (Δ102 HYPE (HYPE103-456) [1]) [µM] | EC50 (Δ102 HYPE (HYPE103-456) [2]) [µM] | further results
O=C(O)C1=CC(=C(c2ccc(O)c(C(=O)O)c2)c2ccc(O)c(C(=O)O)c2)C=CC1=O [I2, Aurintricarboxylic Acid] | 0.347 |  | 
CCCCCCCCCCCCCCCC(O)C(N)CO (racemic) [A2, DL-erythro-dihydrosphingosine] |  | 15.415 | 
CCCCC(CC)CN1CN(CC(CC)CCCC)CC(C)(N)C1 (stereo not shown) [A3, Hexetidine] |  | 13.144 | 
CCCCCCCCCCCCCCCC[N+](C)(C)CCN(Cc1ccc(OC)cc1)c1ncccn1 [A5, Thonzonium Bromide] |  | 10.305 | 
CC(C)(C)c1ccc(-c2cc(C[C@H]3CNCC[C@H]3CC(=O)N3CCN(c4ccc(F)cc4)CC3)no2)cc1 [A6, NAT14–350426] |  |  | in-gel fluorescence autoAMPylation with Fl-ATP (Δ45 HYPE): significant increase in bioactivity of A1 and A4–A6 (Figure 9D)
COc1cc(-c2ccc(N=Nc3ccc4c(S(=O)(=O)O)cc(S(=O)(=O)O)c(N)c4c3O)c(OC)c2)ccc1N=Nc1ccc2c(S(=O)(=O)O)cc(S(=O)(=O)O)c(N)c2c1O [I3, Chicago Sky Blue] | 22.5 |  | 
Cc1cc(-c2ccc(N=Nc3ccc4c(S(=O)(=O)O)cc(S(=O)(=O)O)c(N)c4c3O)c(C)c2)ccc1N=Nc1ccc2c(S(=O)(=O)O)cc(S(=O)(=O)O)c(N)c2c1O [I1, Evan’s Blue] | 30.4 |  | 
